The values below come from US8242105B2, “Structural mimetics of proline-rich peptides and the pharmaceutical use thereof” (priority 2006, dated 2012).

The Kd is the free concentration of one partner at which half of the binding sites on the other are occupied at equilibrium, for simple one-to-one binding.

No end group written: not given here.

Experiment [1] deals with T1, VASP/EVH1 domain (Homo sapiens, UniProt P50552).
T1 construct: the EVH1 domain of a completely ^15N-labelled VASP protein
As to the kind of experiment: Fluorescence titration of ligand peptides. In kind it is binding. As for the experimental part:
Using the synthetic compound 85, ligand peptides with partially or completely replaced proline sequences were synthesized and investigated for their interaction with the EVH1 domain (pp=building block 85). […] The binding affinities were determined using NMR titration, the kinetic Biacore method, or by means of fluorescence titration.

Experiment [2] deals with T1, VASP/EVH1 domain. As to the kind of experiment: Biacore (surface plasmon resonance) binding of ligand peptides. The note with it: Binding affinity (Biacore), initial measurements yet remaining to be verified.
Excerpt: In this method the domain protein is immobilized on the surface of a sensor chip, while a solution of ligand peptide flows across the surface. By measuring the surface plasmon resonance that causes the refractive index to change, it is possible to monitor the binding kinetics in real-time so that the association and dissociation constants can also be determined.
Experiment [3] deals with T1, VASP/EVH1 domain. Nature of the experiment: NMR titration (15N-1H-HSQC) of the VASP/EVH1 domain with ligand peptide. The note with it: Binding affinity (NMR), VASP/EVH1 domain in solution; KD from change in chemical shift versus ligand peptide concentration.
Description: The interactions between the EVH1 domain of a completely ^15N-labelled VASP protein and the ligand peptides I and II was elucidated using multidimensional NMR-spectroscopic methods. To this end, the EVH1 domain in a solution was titrated with varying amounts of ligand peptide and investigated by recording ^15N-^1H-HSQC-NMR spectra each time. In the event of positive binding interaction, increasing the ligand concentration step by step (10, 20, 50, 100, 200, 500 and 1000 μM) results in a clearly recognizable shift of some domain signals, which can be used to calculate values for the binding constant at a later point in time.
A continuous equilibrium, i.e. [EVH1]-ligand (bound) ? [EVH1]+ligand (unbound), is present in solution so that, depending on the rate of interchange of the ligands, different NMR spectra are obtained (in analogy to the signals of —OH and —NH in the one-dimensional range).
When correlating the changes in the chemical shift of the cross-peaks with the binding strength between domain and ligand peptide, it is possible to calculate values for the binding constant by plotting the change in shift Δδ versus the ligand peptide concentration.
In experiment [4] the target is Mena/EVH1 domain (Homo sapiens, UniProt Q8N8S7). Nature of the experiment: biochemical.
Mena/EVH1 domain, sequence (Q8N8S7 1-111 limits assumed): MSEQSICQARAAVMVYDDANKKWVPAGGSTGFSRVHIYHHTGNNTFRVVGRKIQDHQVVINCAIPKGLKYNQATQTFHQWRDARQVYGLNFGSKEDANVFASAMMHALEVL
Excerpt: (§1) Using a series of different test ligand peptides, it was also possible to gain an overview over the binding affinities.
Experiment [5] concerns the target T1, VASP/EVH1 domain. Format: binding.
Excerpt: This can be seen in FIG. 2 wherein the class I EVH1 domain of the human VASP protein was investigated together with a short section from the ActA peptide (332[sequence]344).
as §1

T1 sequence (P50552 2-113): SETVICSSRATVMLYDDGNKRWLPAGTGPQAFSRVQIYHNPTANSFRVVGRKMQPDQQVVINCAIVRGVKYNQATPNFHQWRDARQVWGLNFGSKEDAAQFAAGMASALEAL

In experiment [1], `CC(C)C[C@H](NC(=O)[C@H](CCC(=O)O)NC(=O)[C@H](CC(=O)O)NC(=O)[C@H](CCC(=O)O)NC(=O)[C@@H](NC(=O)[C@@H]1CC[C@@H]2C=C[C@H]3CCN(C(=O)[C@@H]4CCCN4C(=O)[C@@H]4CCCN4C(=O)[C@H](Cc4ccccc4)NC(=O)[C@H](CCC(=O)O)NC(=O)[C@H](Cc4ccccc4)NC(=O)[C@@H](N)CO)[C@@H]3C(=O)N21)[C@@H](C)O)C(=O)O` [SFEFPPppTEDEL] returned a dissociation constant (Kd) of 26 ± 5 µM.

Take `CC(C)C[C@H](NC(=O)[C@H](CCC(=O)O)NC(=O)[C@H](CC(=O)O)NC(=O)[C@H](CCC(=O)O)NC(=O)[C@@H](NC(=O)[C@@H]1CCCN1C(=O)[C@@H]1CC[C@@H]2C=C[C@H]3CCN(C(=O)[C@@H]4CCCN4C(=O)[C@H](Cc4ccccc4)NC(=O)[C@H](CCC(=O)O)NC(=O)[C@H](Cc4ccccc4)NC(=O)[C@@H](N)CO)[C@@H]3C(=O)N21)[C@@H](C)O)C(=O)O` [SFEFPppPTEDEL]: the Kd in experiment [2] was 29.3 to 33.3 µM; in experiment [3] it was 20 to 35 µM; in experiment [1] it was 47 ± 14 µM.

For `CC(C)C[C@H](NC(=O)[C@H](CCC(=O)O)NC(=O)[C@H](CC(=O)O)NC(=O)[C@H](CCC(=O)O)NC(=O)[C@@H](NC(=O)[C@@H]1CCCN1C(=O)[C@@H]1CCCN1C(=O)[C@@H]1CC[C@@H]2C=C[C@H]3CCN(C(=O)[C@H](Cc4ccccc4)NC(=O)[C@H](CCC(=O)O)NC(=O)[C@H](Cc4ccccc4)NC(=O)[C@@H](N)CO)[C@@H]3C(=O)N21)[C@@H](C)O)C(=O)O` [SFEFppPPTEDEL], binding in experiment [1] was characterised by a dissociation constant (Kd) of 82 ± 30 µM.

`CC(C)C[C@H](NC(=O)[C@H](CCC(=O)O)NC(=O)[C@H](CC(=O)O)NC(=O)[C@H](CCC(=O)O)NC(=O)[C@@H](NC(=O)[C@@H]1CC[C@@H]2C=C[C@H]3CCN(C(=O)[C@@H]4CC[C@@H]5C=C[C@H]6CCN(C(=O)[C@H](Cc7ccccc7)NC(=O)[C@H](CCC(=O)O)NC(=O)[C@H](Cc7ccccc7)NC(=O)[C@@H](N)CO)[C@@H]6C(=O)N54)[C@@H]3C(=O)N21)[C@@H](C)O)C(=O)O` [SFEFppppTEDEL] had a dissociation constant Kd in experiment [1] of 45 ± 15 µM.

Consider FPPPPT [FPPPPT], for which, in experiment [4], the affinity, expressed as Kd, was 417 µM. For the same compound, the “binding affinity KD” value in experiment [5] is “no measurable affinity”.
